The values that follow come from ChEMBL document CHEMBL1148026, “Oxadiazole mannich bases: synthesis and antimycobacterial activity” (Bioorg Med Chem Lett, 2007).

The subject of the assay is Mycobacterium tuberculosis. The experiment in a line: Antimycobacterial activity against isoniazid-resistant Mycobacterium tuberculosis by agar dilution method using double dilution technique. Format: functional.

SMILES strings stand for the structures. ≈ marks a conversion by molar mass, not a printed value.

As a reminder, the MIC is the least concentration at which growth counts as inhibited. Read a low MIC as a more susceptible organism. On to `O=S(=O)(c1ccc(NC(Cc2ccco2)n2nc(COc3ccccc3)oc2=S)cc1)c1ccc(NC(Cc2ccco2)n2nc(COc3ccccc3)oc2=S)cc1` (stereo not given), for which 1.14 µM (≈ 0.968 µg/mL) was the least that counted as inhibitory (MIC). The value for `O=S(=O)(c1ccc(NC(Cc2ccco2)n2nc(Cc3ccccc3)oc2=S)cc1)c1ccc(NC(Cc2ccco2)n2nc(Cc3ccccc3)oc2=S)cc1` (stereo not given) was 3.24 µM (≈ 2.65 µg/mL); that for `O=S(=O)(c1ccc(NC(c2ccccc2)n2nc(-c3ccc(Nc4ccccc4)cc3)oc2=S)cc1)c1ccc(NC(c2ccccc2)n2nc(-c3ccc(Nc4ccccc4)cc3)oc2=S)cc1` (stereo not given) was 4.65 µM (≈ 4.48 µg/mL). In the case of `O=S(=O)(c1ccc(NC(Cc2ccco2)n2nc(-c3ccc(Nc4ccccc4)cc3)oc2=S)cc1)c1ccc(NC(Cc2ccco2)n2nc(-c3ccc(Nc4ccccc4)cc3)oc2=S)cc1` (stereo not given) it was 1.86 µM (≈ 1.81 µg/mL). The value for `O=S(=O)(c1ccc(NC(c2ccccc2)n2nc(COc3cccc4ccccc34)oc2=S)cc1)c1ccc(NC(c2ccccc2)n2nc(COc3cccc4ccccc34)oc2=S)cc1` (stereo not given) was 5.96 µM (≈ 5.61 µg/mL); that for `O=S(=O)(c1ccc(NC(c2ccccc2)n2nc(Cc3ccccc3)oc2=S)cc1)c1ccc(NC(c2ccccc2)n2nc(Cc3ccccc3)oc2=S)cc1` (stereo not given) was 5.98 µM (≈ 4.84 µg/mL).

`O=[N+]([O-])c1ccc(-c2nn(C(Nc3ccc(S(=O)(=O)c4ccc(NC(c5ccccc5)n5nc(-c6ccc([N+](=O)[O-])cc6)oc5=S)cc4)cc3)c3ccccc3)c(=S)o2)cc1` (stereo not given) registered an MIC of 3.94 µM (≈ 3.43 µg/mL). In the case of `O=S(=O)(c1ccc(NC(Cc2ccco2)n2nc(COc3ccc4ccccc4c3)oc2=S)cc1)c1ccc(NC(Cc2ccco2)n2nc(COc3ccc4ccccc4c3)oc2=S)cc1` (stereo not given) it was 1.1 µM (≈ 1.04 µg/mL); in that of `O=[N+]([O-])c1ccc(-c2nn(C(Cc3ccco3)Nc3ccc(S(=O)(=O)c4ccc(NC(Cc5ccco5)n5nc(-c6ccc([N+](=O)[O-])cc6)oc5=S)cc4)cc3)c(=S)o2)cc1` (stereo not given), 1.74 µM (≈ 1.53 µg/mL); in that of `NNC(=O)c1ccncc1` [ISONIAZID], 11.4 µM (≈ 1.56 µg/mL). The value for `O=S(=O)(c1ccc(NC(c2ccccc2)n2nc(COc3ccccc3)oc2=S)cc1)c1ccc(NC(c2ccccc2)n2nc(COc3ccccc3)oc2=S)cc1` (stereo not given) was 4.98 µM (≈ 4.19 µg/mL); that for `O=S(=O)(c1ccc(NC(c2ccccc2)n2nc(COc3ccc4ccccc4c3)oc2=S)cc1)c1ccc(NC(c2ccccc2)n2nc(COc3ccc4ccccc4c3)oc2=S)cc1` (stereo not given) was 2.42 µM (≈ 2.28 µg/mL); that for `O=S(=O)(c1ccc(NC(c2ccccc2)n2nc(-c3ccccc3)oc2=S)cc1)c1ccc(NC(c2ccccc2)n2nc(-c3ccccc3)oc2=S)cc1` (stereo not given) was 5.42 µM (≈ 4.23 µg/mL). In the case of `O=S(=O)(c1ccc(NC(Cc2ccco2)n2nc(COc3cccc4ccccc34)oc2=S)cc1)c1ccc(NC(Cc2ccco2)n2nc(COc3cccc4ccccc34)oc2=S)cc1` (stereo not given) it was 2.12 µM (≈ 2.01 µg/mL); in that of `O=S(=O)(c1ccc(NC(Cc2ccco2)n2nc(-c3ccccc3)oc2=S)cc1)c1ccc(NC(Cc2ccco2)n2nc(-c3ccccc3)oc2=S)cc1` (stereo not given), 2.24 µM (≈ 1.77 µg/mL).
